Results: BigSolDB 2.1

COc1ccc(-c2nn(-c3ccccc3)cc2/C=C/C(=O)c2nc3ccccc3[nH]2)cc1
solubility (mole fraction)
Conditions | in acetonitrile | in ethanol | in ethyl acetate | in methanol | in n-butanol | in n-pentanol | in n-propanol
298.15 K | 0.000165 | 0.000352 | 0.000809 | 0.000145 | 0.00133 | 0.00156 | 0.00049
303.15 K | 0.0002 | 0.000372 | 0.000826 | 0.000149 | 0.00136 | 0.00162 | 0.00052
308.15 K | 0.000227 | 0.000385 | 0.000846 | 0.000155 | 0.00138 | 0.00168 | 0.000541
313.15 K | 0.00025 | 0.000399 | 0.000868 | 0.00016 | 0.00142 | 0.00174 | 0.000565
318.15 K | 0.000282 | 0.00042 | 0.000886 | 0.000167 | 0.00145 | 0.00179 | 0.000586
323.15 K | 0.000301 | 0.00043 | 0.00091 | 0.00017 | 0.00149 | 0.00185 | 0.000615
328.15 K | 0.000329 | 0.000452 | 0.000935 | 0.000177 | 0.00151 | 0.00191 | 0.000628

COc1ccc(-c2nn(-c3ccccc3)cc2/C=C/C(=O)c2nc3ccccc3[nH]2)cc1OC
solubility (mole fraction)
Conditions | in acetonitrile | in ethanol | in ethyl acetate | in methanol | in n-butanol | in n-pentanol | in n-propanol
298.15 K | 0.000113 | 3.91e-05 | 0.000355 | 3.04e-05 | 0.00016 | 0.00031 | 0.000125
303.15 K | 0.000135 | 5e-05 | 0.000425 | 3.6e-05 | 0.000209 | 0.00033 | 0.00014
308.15 K | 0.000152 | 5.88e-05 | 0.000471 | 4.06e-05 | 0.000244 | 0.000354 | 0.00015
313.15 K | 0.00017 | 7.16e-05 | 0.00052 | 4.47e-05 | 0.00028 | 0.000375 | 0.000167
318.15 K | 0.000189 | 8.46e-05 | 0.000554 | 5.02e-05 | 0.000321 | 0.000395 | 0.000185
323.15 K | 0.00021 | 0.0001 | 0.00059 | 5.5e-05 | 0.00035 | 0.000412 | 0.0002
328.15 K | 0.00023 | 0.000111 | 0.000629 | 6.53e-05 | 0.00039 | 0.00043 | 0.00022

O=C(/C=C/c1cn(-c2ccccc2)nc1-c1ccc(Cl)cc1)c1nc2ccccc2[nH]1
solubility (mole fraction)
Conditions | in acetonitrile | in ethanol | in ethyl acetate | in methanol | in n-butanol | in n-pentanol | in n-propanol
298.15 K | 0.000116 | 0.000102 | 0.000257 | 4.06e-05 | 0.00015 | 0.000253 | 8.35e-05
303.15 K | 0.000135 | 0.000113 | 0.00029 | 5.1e-05 | 0.000175 | 0.000275 | 0.000103
308.15 K | 0.000153 | 0.00012 | 0.000328 | 6.74e-05 | 0.000201 | 0.000304 | 0.000121
313.15 K | 0.000171 | 0.000132 | 0.000385 | 7.9e-05 | 0.000216 | 0.000354 | 0.000132
318.15 K | 0.000182 | 0.000148 | 0.000432 | 9.36e-05 | 0.00024 | 0.000387 | 0.00015
323.15 K | 0.000193 | 0.000155 | 0.000482 | 0.000105 | 0.000258 | 0.000423 | 0.000158
328.15 K | 0.000211 | 0.000172 | 0.000526 | 0.000117 | 0.000295 | 0.000442 | 0.000167
